Assay results taken from paper PMC4914250, “Cancer therapeutic approach based on conformational stabilization of mutant p53 protein by small peptides” (Oncotarget, 2016).

Assays:
[1] = test system: mutp53 in BT549 cell extract; assay: ELISA of mutp53 conformation, BT549; format: biochemical, human; conditions: score 0-6 compared to positive control;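 also: 0 means no effect and 6 means as or more effective than positive control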
Description: (§1) A total of close to 350 peptides, deduced from the phage sequences, were synthesized and subjected to several alternative complementary methods of semi high-throughput functional screening; we refer to these peptides as pCAPs (p53 conformation activating peptides). First, we used cell-free ELISA assays to evaluate the effect of individual peptides on mutp53 conformation and DNA binding in vitro. For conformation analysis (Figure 2A), microtiter plates were coated with PAb240, PAb1620 or PAb421 as control, then the effect of each peptide on reactivity of mutp53 with these antibodies was examined; WTp53 served as a positive control for PAb1620 reactivity.
96-well plates were coated using 3 different anti p53 monoclonal antibodies, PAb421, PAb240 and PAb1620. Wells were incubated overnight (ON) with 100μl Ab (5μg/ml) in room temp (RT). The liquid was discarded, and the wells were washed 3 times with PBS, 200 μl. Next, blocking with 5% BSA in PBS for 2 hours (RT) was performed, followed by 3 washes in PBS. Samples of mutant and WT p53 proteins (100 μl, 10 μg/ml), together with control peptides or with test peptides 1-326 (5μg /ml), were incubated for 1.5 hours, and then added to the wells for1 hour at RT. 4 washes with PBST were performed. Next, HRP conjugated αp53 antibody (10μg/ml HAF1355 (R&D)) were added to the wells and incubated at RT for 1 hour. Plates were washed 3 times in PBST and TMB substrate solution (50μl each well, Thermo, (Cat. No. ES001-1L-K)) was added and incubated at 37°C for 20 min. The reaction was stopped with 2M Sulfuric acid (50μl). The absorbance was measured at 450 nm with a spectrophotometer. Protein concentration was determined by dividing the absorb an each sample to by the absorbance of PAb421 samples.

mutp53 = assay: Summary score of peptide functional screens; conditions: overall score over conformation, DNA binding, viability and PCR screens
mutp53^R175H = assay: ELISA of mutp53 conformation (PAb1620/PAb240), H1299-p53^R175H cell extract; format: biochemical, human; conditions: for Conform H1299: score 0-6 compared to positive control, mutp53 conformation; for reactivity of p53^R175H with PAb1620 and PAb240: H1299-p53^R175H cell extract, Figure 2A;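 as to Conform H1299: 0 means no effect and 6 means as or more effective than positive control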
Description: as §1
Cell extracts were added to ELISA plates coated with the indicated antibodies to allow mutp53 to react with the peptides and antibodies. αp53-HRP Ab was used for assessment of p53 levels. Numbers represent ratio of absorbance between the PAb1620 and PAb240 samples. All reads were normalized to the control […] reading of each extract. MCF7 (WTp53) and H1299-mutp53^A135V (tsp53) cells were used as positive controls for the WTp53 conformation (1620/240 ratio equals or exceeds 5:1). […] 96 well plates were coated with anti-p53 antibody, cell extracts containing p53 were reacted with oligonucleotides that contain a p53RE consensus binding site, labeled with biotin, in the presence or absence (NT) of test peptides. Streptavidin-HRP is used to quantify the amount of oligos in the well. TMB assay was performed to determine bound mutp53 levels (450nm). MCF7 and the H1299-mutp53^A135V(TS) cells serve as positive controls for WTp53. C.and D. - Bar graphs illustrating the effect of various selected peptides on mut-p53 dependent expression on cell viability. […] D, ES2 cells expressing endogenous mutp53 (blue bars) and ES2 cells knocked out for p53 by CRISPR construct (light blue bars). Cell lines were treated with selected peptides, Cis-platinum was used as positive control for cell death. 48 hours after treatment, cells were washed with PBS, and the remaining attached cells were stained with Crystal violet and washed 4 times with PBS. Stained cells were dissolved in 10% acetic acid and plates were taken for optical density measurement at […]. TEXT PRINTED IN THE PICTURE: (A) pCAP1: 0.87 | (A) pCAP2: 0.53 | (A) pCAP3: 0.59 | (A) pCAP4: 0.59 | (A) pCAP5: 0.60 | (A) pCAP6: 0.75 | (A) pCAP23: 1.06 | (A) pCAP24: 1.44 | (A) pCAP36: 1.25 | (A) pCAP47: 1.54 | (A) pCAP54: 1.54 | (A) pCAP60: 2.73 | (A) pCAP68: 2.22 | (A) pCAP83: 1.56 | (A) pCAP97: 2.45 DOUBTS OF THE COPYIST ABOUT THIS PICTURE: Panel A: the numbers over the bars are printed very small, rotated and blurred, so 3, 5, 6, 8 and 9 cannot be told apart with certainty. All values are best readings: pCAP1 0.87, pCAP2 0.53, pCAP3 0.59, pCAP4 0.59, pCAP5 0.60, pCAP6 0.75, pCAP23 1.06, pCAP24 1.44, pCAP36 1.25, pCAP47 1.54, pCAP54 1.54, pCAP60 2.73, pCAP68 2.22, pCAP83 1.56, pCAP97 2.45 / Panel A: the picture prints no measure with the numbers over the bars, so they are given as bare numbers / Panel A: numbers are also printed over the controls, which are not substances and are left out of lines. Best readings: NT 0.60, 60° 30'' 0.48, 60° 1' 0.37, 60° 3' 0.13, 60° 10' 0.05, MCF7 3.32, H1299TS 3.25
Extracts were prepared at a concentration of 750ng/μl and then reacted for 2 hours with different peptides. Plates coated with the different antibodies were then washed and blocked, and extracts pre-incubated either with or without peptides were added for two additional hours. After removal of extracts, plates were washed and incubated with HRP-conjugated anti-p53 antibody. Finally, HRP activity was quantified by optical density at 450nm. MCF7 cells (expressing WTp53) and H1299-tsp53^A135V cells, stably expressing a temperature sensitive p53 mutant that has mutant conformation at 37°C but WT conformation at 32°C [31], were used as positive controls for the WTp53 conformation (1620/240 ratio 5:1). […]

Row | Substance | Conform BT549 [1] | SCORE (mutp53) | Conform H1299 (mutp53^R175H) | reactivity of p53^R175H with PAb1620 and PAb240 (mutp53^R175H)
1 | EVTFRHSVV [pCAP-1, randomly selected peptide used as inert comparison] | 1 | 19 |  | 
2 | HANLHHT [pCAP-87] | 2 | 32 | 3 | 
3 | HHPWTHHQRWS [pCAP-20] |  | 19 | 2 | 
4 | HSSHHHPVHSWN [pCAP-83] |  | 27 | 4 | 
5 | IRGRIIR [pCAP-54] | 2 | 23 | 3 | increased the reactivity of p53^R175H with PAb1620 and decreased its reactivity with PAb240
6 | IRGRIIRRRRRRRRR [pCAP-54R, pCAP-54 with poly arginine tail] | 2 | 28 | 1 | 
7 | IRILMFLIGCGR [pCAP-23] | 2 | 21 | 2 | 
8 | IRILMFLIGCGRRRRRRRRR [pCAP-23R, pCAP-23 with poly arginine tail] | 1 | 24 | 2 | 
9 | LHSKTLVL [pCAP-17] | 2 | 20 | 2 | 
10 | LRCLLLLIGRVG [pCAP-24] | 2 | 23 | 3 | 
11 | LRCLLLLIGRVGRRRRRRRR [pCAP-24R, pCAP-24 with poly arginine tail] | 2 | 34 | 3 | 
12 | SFILFIRRGRLG [pCAP-60] | 1 | 26 |  | increased the reactivity of p53^R175H with PAb1620 and decreased its reactivity with PAb240
13 | SFILFIRRGRLGRRRRRRRRR [pCAP-60R, pCAP-60 with poly arginine tail] | 2 | 32 |  | 
14 | WNHHHSTPHPAH [pCAP-97] |  | 39 | 1 | increased the reactivity of p53^R175H with PAb1620 and decreased its reactivity with PAb240
15 | WNHHHSTPHPAHRRRRRR [pCAP-97R, pCAP-97 with poly arginine tail] |  | 46 | 1 | 
16 | YPTQGHLR [pCAP-36] |  | 32 | 5 | 
17 | YRRLLIGMMWRRRRRRRRR [pCAP-68] |  | 37 | 4 | increased the reactivity of p53^R175H with PAb1620 and decreased its reactivity with PAb240
18 | myr-PRVLPSPHTIHPSQYP [pCAP-229, myristoylated peptide, similarity to HIPK2] |  | 35 |  | 
19 | myr-RRIRDPRILLLHFD [pCAP-325] | 3 | 53 |  | 
20 | myr-RRKHNKHRPEPDSDER [pCAP-221] | 3 | 58 |  | 
21 | myr-RRKILFIRLMHNKH [pCAP-227, myristoylated peptide, similarity to GAS2] | 4 | 56 | 2 | 
22 | myr-RRLIVRILKLPNPPER [pCAP-242] | 4 | 55 | 2 | 
